IC50 and ED50 data for three compounds are collected here from US4868193A, “Styryl tetrazoles and anti-allergic use thereof” (Rorer Pharmaceutical Corporation, priority 1986, dated 1989).

Assay [1] concerns LTD4 (leukotriene D4)-induced contraction of guinea pig peripheral lung strips. The experiment in a line: In vitro assay to identify leukotriene antagonist compounds (guinea pig lung strips), vs LTD4. It is filed as cell-based. Particulars: 50% reduction of muscle response, read-out: In Vitro I50. On the procedure:
(§1) In Vitro Assay to Identify Leukotriene Antagonist Compounds […] Peripheral strips of guinea pig lungs are prepared and hung in tissue baths according to the procedure described by Drazen et al. Male guinea pigs (Charles River, 250-400 g) are sacrificed by cervical dislocation and their lungs rapidly removed. The individual lobes are dissected free and rinsed in Assay Buffer which is continuously aerated with 95% oxygen-5% carbon dioxide. After the lobes are extensively rinsed, a strip of lung tissue, approximately 2 mm thick and 5-8 cm long, is cut off the sharpest and most peripheral portion of each lobe. The peripheral edge is cut almost completely around the outside of the lobe so that a U-shaped strip is obtained. These strips are rinsed in Assay Buffer and then connected with surgical silk thread to the support rods from the tissue baths. The rods are adjusted in the baths and the strips connected to the pressure transducers. The tissue baths are aerated with 95% oxygen-5% carbon dioxide and maintained at 37°. The tension on these strips is adjusted to 500 mg with "re-zeros" the pen deflection on the previously calibrated polygraph. Tissues are initially washed with fresh buffer every 5-10 minutes for about 30 minutes. Thereafter, tissues were washed with fresh assay buffer at least every 20 minutes. Normalizing Muscle Contractions and Testing of Compounds 1. After the tissues have been repeatedly washed and allowed to equilibrate in the tissue bath, they are challenged with 1μM histamine. [Usually 10 μl of a 1 mM stock solution are added to the baths.] After maximum concentrations have been obtained, then tissues are washed and allowed to relax back to baseline tension. This histamine challenge procedure is repeated at least 1 or 2 more times to obtain a repeatable control response. […] Leukotriene (usually 0.4 units/ml) is added after the desired preincubation time and the muscle response is recorded. […] From this curve the concentration responding to the 50% reduction of the muscle concentration is calculated as the ^I 50 value. […]

The test system of assay [2] is LTC4-induced contraction of guinea pig peripheral lung strips. The experiment in a line: In vitro assay to identify leukotriene antagonist compounds (guinea pig lung strips), vs LTC4. It is filed as cell-based. Particulars: Cavia porcellus, 50% reduction of muscle response, read-out: In Vitro I50. On the procedure: as §1
The test system of assay [3] is LTD4 (leukotriene D4)-induced cutaneous wheal formation. The experiment in a line: Leukotriene D4-induced wheal formation in the guinea pig. Also on record: species or system guinea pig (male Hartley). Particulars: Cavia porcellus, po, 1 h, p.o., 0.1 μg LTD4 intradermally, given one hour before Evans blue dye, read-out: In Vivo LTD4 Wheal, ED50. On the procedure:
Leukotriene D4 -Induced Wheal formation in the Guinea Pig Leukotriene D4 (LTD4) increases vascular permeability in guinea pig skin. LTD4 antagonists are tested for oral activity in a model of LTD4 -induced cutaneous wheal formation in the guinea pig. Male Hartley guinea pigs are given either vehicle (polyethylene glycol 400) or test compound by gauge one hour before intravenous injection of 1% Evans blue dye. Immediately after dye injection, 0.1 μg of LTD4 (in a volume of 0.1 ml) is injected intradermally at two separate dorsal sites. Thirty minutes later, the animals are sacrificed by carbon dioxide asphyxiation, the dorsal skins reflected, and glued wheal areas measured. Mean values±standard error for wheal areas in vehicle- and drug-treated groups are determined. Inhibition of wheal formation is calculated by comparison of drug-treated and control groups.

Structures are written as SMILES. Structures can show the parent of a compound that is named as a salt. Where two headings read alike, the source gives them in different places.

With `N#CC=Cc1cccc(OCc2ccc3ccccc3n2)c1` [Example 1B, 3-(Quinolin-2-yl-methoxy)-cinnamylnitrile], the IC50 in assay [1] (Cavia porcellus) was determined as 650 nM; in assay [2] it was 1200 nM.
Usually ED50 stands for the dose at which the effect has come halfway, by size or by number of responders. Regarding `C(=Cc1nnn[nH]1)c1cccc(OCc2ccc3ccccc3n2)c1.Cl` [Example 1C, 5-[3-(Quinolin-2-yl-methoxy)styryl]-tetrazole hydrochloride], the values for the IC50 in assay [1] (hydrochloride), in assay [1] (Cavia porcellus) and in assay [2] were 80 nM, 60 nM and 150 nM, respectively. Further, in assay [3], the ED50 came to 22 mg/kg.
With `C(=Cc1nnn[nH]1)c1ccc(OCc2ccc3ccccc3n2)cc1` [Example 2C, 5-[4-(Quinolin-2-yl-methoxy)styryl]-tetrazole hydrochloride], the IC50 in assay [2] came to 500 nM.
